Laboratory results taken from article PMC8125995, “In Vitro Antiplasmodial and Cytotoxic Activities of Compounds from the Roots of Eriosema montanum Baker f. (Fabaceae)” (Molecules, 2021).
≈ marks a conversion by molar mass, not a printed value. Read-outs that look alike come from different tables or passages of the source.

How the values were obtained:
[1] = tested on: 3D7 strain of Plasmodium falciparum; assay: In vitro antiplasmodial activity (SYBR Green, 48 h); type: cell-based; settings: read-out: Antiplasmodial Activity IC50
Description: Continuous in vitro cultures of asexual erythrocyte stages of P. falciparum, chloroquine-sensitive 3D7 strain was maintained according to the procedure of Trager and Jensen. Strains were obtained from ATCC, Bei Resources. The host cells were human red blood cells (A+). […] Compound stock solutions were prepared in DMSO at 10 mg/mL (for an extract) and 1 mg/mL (for an isolated compound). Then, the solution is directly diluted in the medium; each test sample was applied in a series of eight 2-fold dilutions in a 96-well plate, starting with 100 µg/mL and 10 µg/mL for the crude extract and purified compounds, respectively, and tested in triplicate. The effect of compounds on the parasite growth was estimated, after 48 h incubation, by using the SYBR Green, a DNA intercalating compound. Artemisinin (Sigma-Aldrich, Machelen, Belgium), at an initial concentration of 100 ng/mL, was used as positive control in all experiments. The half-maximal inhibitory concentration (IC50) values were calculated from graphs.

[2] = Cytotoxicity, Cell Titer-Glo Luminescent Cell Viability Assay; type: cell-based; settings: human
Description: (§1) The cytotoxic effect of the crude extract and compounds thereof on THP-1 human acute leukemia cell line was carried using the Cell Titer-Glo Luminescent Cell Viability Assay (Promega). […] Cells were then incubated in the presence or absence of tested compounds for 3 days at 37 °C in a humidified 5% CO2 atmosphere in a 96-wells plate at a cell density of two thousand cells/well. The cell viability was then evaluated using Cell Titer-Glo Luminescent Cell Viability Assay (Promega) according to the manufacturer’s instructions.

[3] = tested on: THP-1 human acute leukemia cell line; assay: as above; type: cell-based; settings: 3 days
Description: as §1

[4] = parameters: method as in PMID 21872416; settings: antiplasmodial activity; read-out: reported IC50; cited from earlier work
[5] = tested on: different cell lines; parameters: method as in doi:10.1016/j.phytol.2020.10.005; settings: cited from earlier work
[6] = chloroquine-sensitive 3D7 strain, 48 h incubation, SYBR Green, mean ± S.D. of two, three or four independent experiments

| SMILES | IC50 [1, 6] [µg/mL] | CC50 at 3 days ([2]; Cytotoxic Activity CC50) [µg/mL] | also measured |
| --- | --- | --- | --- |
| O=c1c(-c2ccc(O)cc2)coc2cc(O)cc(O)c12 [Compound 7, genistein] | – | – | IC50 ([1]; 3D7, 48 h): 7.74 ± 0.802 µg/mL (≈ 28.6 µM); CC50 at 3 days ([2]; THP-1 cells, 3 days incubation, read-out: Cytotoxic Activity CC50): 116 µg/mL (≈ 430 µM) |
| C[C@@H]1CC[C@H]2[C@@H](C)C(=O)O[C@@H]3O[C@@]4(C)CC[C@@H]1[C@]32OO4 [Artemisinin, reference compound] | 0.0067 ± 0.003 (≈ 0.0237 µM) | – | – |
| O=c1c(-c2ccc(O)c(O)c2)coc2cc(O)cc(O)c12 [Compound 6, Isoluteolin] | 0.121 ± 0.048 (≈ 0.423 µM) | 243 ± 73 (≈ 848 µM) | – |
| O=C(O)CC(O)C(=O)O (stereo not shown) [Malic acid, malic acid] | – | – | IC50 [4]: > 10 µM |
| COc1cc(O)cc2occ(-c3ccc(O)cc3)c(=O)c12 [Compound 5, isoprunetin] | 0.042 (≈ 0.148 µM) | 221 ± 33.3 (≈ 778 µM) | – |
| O=C(O)C[C@](O)(Cc1ccc(O)cc1)C(=O)O [Compound 1, eucomic acid] | 0.057 ± 0.031 (≈ 0.237 µM) | 375 ± 97.3 (≈ 1560 µM) | CC50 [5]: > 100 µM |

The next lines start with results.

| IC50 [1, 6] [µg/mL] | SMILES | CC50 at 3 days ([2]; Cytotoxic Activity CC50) [µg/mL] | also measured |
| --- | --- | --- | --- |
| 0.113 ± 0.074 (≈ 0.253 µM) | COc1cc(OC2OC(CO)C(O)C(O)C2O)cc2occ(-c3ccc(O)cc3)c(=O)c12 (stereo not shown) [Compound 2, 7-O-glucopyranosyl-isoprunetin] | 322 ± 20.6 (≈ 721 µM) | – |
| > 10 | O=C(O)CC(=O)OC[C@H]1O[C@@H](Oc2cc(O)c3c(=O)c(-c4ccc(O)cc4)coc3c2)[C@H](O)[C@@H](O)[C@@H]1O [Compound 4, malonyl genistin] | 182 (≈ 351 µM) | Cytotoxic Activity CC50 [3]: 223.3 ± 58.6 µg/mL |
| 7.87 ± 1.72 (≈ 18.2 µM) | O=c1c(-c2ccc(O)cc2)coc2cc(O[C@@H]3O[C@H](CO)[C@@H](O)[C@H](O)[C@H]3O)cc(O)c12 [Compound 3, genistin] | 169 (≈ 390 µM) | Cytotoxic Activity CC50 [3]: 196.3 ± 44.5 µg/mL |
